This test concerns E. amylovora 153N. The experiment in a line: Fire blight on Snow Drift crabapple trees (Example 311). The format is in vivo. The conditions noted are these: rate 5 lbs/a (2.27 kg/a). Here is the method: A study of the bioefficacy of the various agrichemical compositions, including bioactive acid solutions and blends thereof with an antibiotic agrichemical, were evaluated to assess their bioefficacy against fire blight on crabapples. The study was conducted on 5 year old Snow Drift crabapple trees, with each of the compositions being applied to ten trees in two-subplots of five trees, four different times: at 100% bloom—day 1, a second application was made on day 4, a third on day 11 and a final treatment on day 19. The trees were inoculated with E. amylovora 153N at a concentration of 4×10^6 cells per milliliter on day 1, following drying of the treatment, with the inoculation being repeated on day 13. Evaluation for fire blight was completed on 100 blossoms for each of the subplots on day 12, day 19 and day 27. Additionally, the incidence of shoot infection and the length of cankers were evaluated on day 63.
The test compositions were prepared by forming solutions of the bioactive agents. Two different dilutions of the MI2 bioactive were evaluated, the first employing 94.46 ml/gallon (25 ml/l) of water (5 ppm of each metal) and the second 188.9 ml/gallon (50 ml/l) of water (10 ppm of each metal). A streptomycin product (17% concentrated) was diluted at a rate of 0.049 lbs/gallon ([…]) (200 ppm). Finally, copper hydroxide was diluted at a rate of 1 lb/gallon (119.8 g/l). Each of the compositions and blends were spray applied at a rate of 50 gallons (189.3 l) pre acre. The results are presented as the mean of the counts.

The structures appear in SMILES notation.

`[Cu+2].[OH-].[OH-]` [copper hydroxide]: under “day 12, mean of counts per 100 blossoms”, the “Blossom Incidence Day 12” value was 3.1. Also, the “Blossom Incidence Day 19” value (day 19) came out at 2.2. Further, the “Blossom Incidence Day 27” value (day 27) came out at 9.0. For the setting “day 63”, the “Canker Size Day 63” value worked out at 0.0 cm and the “Shoot Incidence Day 63” value is 1.0.

These data come from patent US9241492B2, “Bioactive acid agrichemical compositions and use thereof” (Sciessent LLC, priority 2007, dated 2016).
